Reference: PMC5739345, “Identification of iridoid synthases from Nepeta species: Iridoid cyclization does not determine nepetalactone stereochemistry” (Phytochemistry, 2018)

Legend:
NcISY2 = target: T1, NcISY2 (Nepeta cataria, UniProt A0A221J5X1); test: end point assay, GC-MS of products; format: biochemical; details: 500 μM 8-oxogeranial, 1 mM NADPH, 200 mM MOPS pH 7.0, 100 mM NaCl, 0.5% THF, 0.5 μM enzyme, 30 °C, 3 h
T1 construct: gene ISY2; N-terminal His-tag (pOPINF), E. coli soluBL21 (DE3), Ni-NTA and gel filtration; not fully homogeneous; dimer fraction

ISY (C. roseus) = target: T2, ISY (C. roseus) (Catharanthus roseus, UniProt K7WDL7); test: end point assay, GC-MS of products; format: biochemical; details: 500 μM 8-oxogeranial, 1 mM NADPH, 200 mM MOPS pH 7.0, 100 mM NaCl, 0.5% THF, 30 °C, 3 h; positive control
T2 construct: positive control; construct not described here; dimer 83 kDa
T2 sequence (K7WDL7 whole entry): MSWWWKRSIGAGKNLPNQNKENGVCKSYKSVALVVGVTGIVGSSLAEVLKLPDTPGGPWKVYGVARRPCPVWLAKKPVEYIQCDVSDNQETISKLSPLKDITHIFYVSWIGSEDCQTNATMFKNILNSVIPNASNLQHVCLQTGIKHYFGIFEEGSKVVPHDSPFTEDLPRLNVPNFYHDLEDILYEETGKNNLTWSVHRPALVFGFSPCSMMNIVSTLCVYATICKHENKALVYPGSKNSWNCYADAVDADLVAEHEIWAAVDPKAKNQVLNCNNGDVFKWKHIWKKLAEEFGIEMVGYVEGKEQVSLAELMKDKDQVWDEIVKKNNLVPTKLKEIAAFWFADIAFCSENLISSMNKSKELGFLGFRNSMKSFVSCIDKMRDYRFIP

T1 sequence (A0A221J5X1 2-397): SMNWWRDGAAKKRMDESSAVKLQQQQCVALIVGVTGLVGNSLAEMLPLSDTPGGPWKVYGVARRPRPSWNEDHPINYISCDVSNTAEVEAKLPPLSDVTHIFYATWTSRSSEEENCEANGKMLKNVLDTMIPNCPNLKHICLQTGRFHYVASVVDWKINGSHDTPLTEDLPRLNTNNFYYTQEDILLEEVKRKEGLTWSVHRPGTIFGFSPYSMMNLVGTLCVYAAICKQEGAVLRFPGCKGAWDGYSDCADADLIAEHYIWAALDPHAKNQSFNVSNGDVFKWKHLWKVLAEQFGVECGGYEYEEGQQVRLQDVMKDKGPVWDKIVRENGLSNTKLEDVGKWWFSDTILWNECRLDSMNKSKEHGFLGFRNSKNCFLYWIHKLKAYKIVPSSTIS

## C/C(C=O)=C\CC/C(C)=C/C=O [8-oxogeranial]
NcISY2
  end point assay, GC-MS of products: the other (NcISY2 and NmISY2) has robust catalytic activity toward the 8-oxogeranial substrate
ISY (C. roseus)
  end point assay, GC-MS of products: a positive control was conducted with ISY (C. roseus)
